Test results reported in patent US10508088B2, “Methods using HDAC11 inhibitors” (FORMA Therapeutics, Inc., priority 2016, dated 2019).

target: Recombinant N-terminal GST tag full-length human HDAC11 (Homo sapiens (Human), UniProt Q96DB2); assay: Probe binding HDAC11 assay, time resolved fluorescence (TRF); details: read-out: HDAC11 IC50 Range
Procedure: The probe binding HDAC11 assay was performed using a time resolved fluorescence (TRF) assay format. Recombinant N-terminal GST tag full-length human HDAC11 was expressed and purified from baculovirus in Sf9 insect cells (SignalChem, # H93-30G-1000). Each assay was performed in 1536 black well microplates (Corning, #3936) in a final volume of 8 μL in assay buffer containing 50 mM HEPES (pH 7.5), 50 mM KCl, 50 mM NaCl, 0.5 mM GSH (L-Glutathione reduced, Sigma #G4251), 0.03% BGG (0.22 μM filtered, Sigma, #G7516-25G), and 0.01% Triton X-100 (Sigma, #T9284-10L). 100 nL of 10-point, 3-fold serial dilution in DMSO was pre-dispensed into respective wells of 1536 assay plates for a final test concentration range of 25 μM to 1.3 nM respectively. The final concentration in the assay of HDAC11 and probe (a fluorescein labeled HDAC 11 inhibitor) was 2.5 nM and 20 nM respectively. 4 μL of 2× probe and 2× anti-GST Terbium (Cisbio, #61GSTXLB) was added to assay plates followed by 4 μL of 2×HDAC11. Plates were incubated for 16 hours at room temperature before time resolved fluorescence was read on the Envision (Excitation at 340 nm, and Emission at 485 nm and 535 nm, Perkin Elmer).
Data from HDAC11 Assays were reported as percent inhibition (inh) compared with control wells based on the following equation: % inh=1−((FLU−AveLow)/(AveHigh−AveLow)) where FLU=measured time resolved fluorescence. AveLow=average time resolved fluorescence of no enzyme control (n=32). AveHigh=average time resolved fluorescence of DMSO control (n=32). IC50 values were determined by curve fitting of the standard 4 parameter logistic fitting algorithm included in the Activity Base software package: IDBS XE Designer Model205. Data is fitted using the Levenburg Marquardt algorithm.

Sequence of Recombinant N-terminal GST tag full-length human HDAC11 (Q96DB2 whole entry): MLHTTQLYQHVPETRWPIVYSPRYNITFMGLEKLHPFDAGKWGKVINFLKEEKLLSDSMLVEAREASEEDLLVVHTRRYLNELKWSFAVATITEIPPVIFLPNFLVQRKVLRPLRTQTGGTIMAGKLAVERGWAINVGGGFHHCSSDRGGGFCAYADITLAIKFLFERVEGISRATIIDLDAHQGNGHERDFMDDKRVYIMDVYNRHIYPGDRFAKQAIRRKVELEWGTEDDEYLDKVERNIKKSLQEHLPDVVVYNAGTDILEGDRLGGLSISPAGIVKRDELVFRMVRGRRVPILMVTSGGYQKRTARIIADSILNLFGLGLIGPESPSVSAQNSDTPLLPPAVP

Question: With `O=C(NO)c1cncc(Nc2nc3cc(Cl)c(Cl)cc3o2)c1` [Example 4-5, 5-((5,6-dichlorobenzo[d]oxazol-2-yl)amino)-N-hydroxynicotinamide] as the molecule, how does the IC50 read?
Answer: The IC50 was < 500 nM.

Question: How did the IC50 turn out when `COCCn1c(Nc2cccc(C(=O)NO)c2)nc2cc(C#N)c(C(F)(F)F)cc21` [Example 19-1, 3-(5-cyano-1-(2-methoxyethyl)-6-(trifluoromethyl)-1H-benzo[d]imidazol-2-ylamino)-N-hydroxybenzamide] was run?
Answer: Its IC50 is < 500 nM.

Question: With `COCc1ccc(-c2cc3[nH]c(Nc4cccc(C(=O)NO)c4)nc3cc2C(F)(F)F)cc1` [Example 36-7, N-hydroxy-3-((6-(4-(methoxymethyl)phenyl)-5-(trifluoromethyl)-1H-benzo[d]imidazol-2-yl)amino)benzamide] as the molecule, how does the IC50 read?
Answer: The IC50 was < 500 nM.

Question: `CC(C)n1c(Nc2cccc(C(=O)NO)c2)nc2cc(C#N)c(C(F)(F)F)cc21` [Example 15-1, 3-(5-cyano-1-isopropyl-6-(trifluoromethyl)-1H-benzo[d]imidazol-2-ylamino)-N-hydroxybenzamide] was tested. Which IC50 did it give?
Answer: The IC50 was < 500 nM.

Question: How did the IC50 turn out when `COCCN(c1cccc(C(=O)NO)c1)c1nc2ccccc2[nH]1` [Example 25-1, 3-((1H-benzo[d]imidazol-2-yl)(2-methoxyethyl)amino)-N-hydroxybenzamide] was run?
Answer: The IC50 was > 1000 nM.

Question: For `O=C(NO)c1cccc(Nc2nc3ccccc3[nH]2)c1` [Example 8-1, 3-(1H-benzo[d]imidazol-2-ylamino)-N-hydroxybenzamide], which IC50 is on record?
Answer: Its IC50 is > 1000 nM.

Question: How did the IC50 turn out when `Cc1cc2nc(Nc3cccc(C(=O)NO)c3)[nH]c2cc1C` [Example 23-4, 3-((5,6-dimethyl-1H-benzo[d]imidazol-2-yl)amino)-N-hydroxybenzamide] was run?
Answer: The IC50 was < 500 nM.

Question: How did the IC50 turn out when `O=C(NO)c1cccc(Nc2nc3cc(C(F)(F)F)c(-c4ccc(N5CCOCC5)cc4)cc3[nH]2)c1` [Example 36-19, N-hydroxy-3-((6-(4-morpholinophenyl)-5-(trifluoromethyl)-1H-benzo[d]imidazol-2-yl)amino)benzamide] was run?
Answer: Its IC50 is < 500 nM.

Question: `O=C(NO)c1cccc(Nc2nc3cc(F)c(Br)cc3[nH]2)c1` [Example 33-16, 3-((6-bromo-5-fluoro-1H-benzo[d]imidazol-2-yl)amino)-N-hydroxybenzamide] was tested. Which IC50 did it give?
Answer: The IC50 was < 500 nM.

Question: For `O=C(NO)c1cccc(Nc2nc3cc(Cl)c([N+](=O)[O-])cc3[nH]2)c1` [Example 33-15, 3-((5-chloro-6-nitro-1H-benzo[d]imidazol-2-yl)amino)-N-hydroxybenzamide], which IC50 is on record?
Answer: The IC50 was < 500 nM.

Question: How did the IC50 turn out when `Cn1c(Nc2cccc(C(=O)NO)c2)nc2cc(C#N)c(C(F)(F)F)cc21` [Example 10-1, 3-(5-cyano-1-methyl-6-(trifluoromethyl)-1H-benzo[d]imidazol-2-ylamino)-N-hydroxybenzamide] was run?
Answer: Its IC50 is < 500 nM.

Question: `COCCn1c(Nc2cccc(C(=O)NO)c2)nc2cc(C(F)(F)F)c(C#N)cc21` [Example 18-1, 3-(6-cyano-1-(2-methoxyethyl)-5-(trifluoromethyl)-1H-benzo[d]imidazol-2-ylamino)-N-hydroxybenzamide] was tested. Which IC50 did it give?
Answer: The IC50 was < 500 nM.

Question: How did the IC50 turn out when `COCCn1c(Nc2cccc(C(=O)NO)c2)nc2ccccc21` [Example 23-1, N-hydroxy-3-((1-(2-methoxyethyl)-1H-benzo[d]imidazol-2-yl)amino)benzamide] was run?
Answer: Its IC50 is > 1000 nM.

Question: `CN(c1cccc(C(=O)NO)c1)c1nc2cc(C#N)c(C(F)(F)F)cc2[nH]1` [Example 9-1, 3-((5-cyano-6-(trifluoromethyl)-1H-benzo[d]imidazol-2-yl)(methyl)amino)-N-hydroxybenzamide] was tested. Which IC50 did it give?
Answer: Its IC50 is < 500 nM.

Question: Which IC50 does the source give for `Cn1c(Nc2cccc(C(=O)NO)c2)nc2cc(C(F)(F)F)c(-c3ccccc3)cc21` [Example 35-3, N-hydroxy-3-((1-methyl-6-phenyl-5-(trifluoromethyl)-1H-benzo[d]imidazol-2-yl)amino)benzamide] here?
Answer: The IC50 was < 500 nM.

Question: Which IC50 does the source give for `O=C(NO)c1cccc(Nc2nc3cc(F)c(Cl)cc3[nH]2)c1` [Example 33-1, 3-((6-chloro-5-fluoro-1H-benzo[d]imidazol-2-yl)amino)-N-hydroxybenzamide] here?
Answer: Its IC50 is < 500 nM.

Question: Which IC50 does the source give for `NCCCCCn1c(Nc2cccc(C(=O)NO)c2)nc2cc(Cl)c(F)cc21` [Example 22-2, 3-((1-(5-aminopentyl)-5-chloro-6-fluoro-1H-benzo[d]imidazol-2-yl)amino)-N-hydroxybenzamide] here?
Answer: Its IC50 is < 500 nM.

Question: Which IC50 does the source give for `O=C(NCc1ccccc1)ONC(=O)c1cccc(Nc2nc3cc(-c4ccccc4)c(C(F)(F)F)cc3[nH]2)c1` [Example 37-1, N-((benzylcarbamoyl)oxy)-3-((5-phenyl-6-(trifluoromethyl)-1H-benzo[d]imidazol-2-yl)amino)benzamide] here?
Answer: The IC50 was < 500 nM.

Question: Which IC50 does the source give for `CS(=O)(=O)c1cc2nc(Nc3cccc(C(=O)NO)c3)[nH]c2cc1C#N` [Example 6-1, 3-(5-cyano-6-(methylsulfonyl)-1H-benzo[d]imidazol-2-ylamino)-N-hydroxybenzamide] here?
Answer: Its IC50 is 500 to 1000 nM.

Question: How did the IC50 turn out when `O=C(NO)c1cccc(Nc2nc3cc(F)c(F)cc3[nH]2)c1` [Example 33-3, 3-((5,6-difluoro-1H-benzo[d]imidazol-2-yl)amino)-N-hydroxybenzamide] was run?
Answer: The IC50 was 500 to 1000 nM.

Question: How did the IC50 turn out when `COCCn1c(Nc2cccc(C(=O)NO)c2)nc2c(OC)cccc21` [Example 24-1, N-hydroxy-3-((4-methoxy-1-(2-methoxyethyl)-1H-benzo[d]imidazol-2-yl)amino)benzamide] was run?
Answer: The IC50 was > 1000 nM.

Question: For `Cn1c(Nc2cccc(C(=O)NO)c2)nc2cc(C(F)(F)F)c(C#N)cc21` [Example 11-1, 3-(6-cyano-1-methyl-5-(trifluoromethyl)-1H-benzo[d]imidazol-2-ylamino)-N-hydroxybenzamide], which IC50 is on record?
Answer: The IC50 was < 500 nM.

Question: How did the IC50 turn out when `O=C(NO)c1cccc(Nc2nc3cc(C(F)(F)F)c(-c4ccccc4CO)cc3[nH]2)c1` [Example 36-11, N-hydroxy-3-((6-(2-(hydroxymethyl)phenyl)-5-(trifluoromethyl)-1H-benzo[d]imidazol-2-yl)amino)benzamide] was run?
Answer: Its IC50 is < 500 nM.

Question: `CS(=O)(=O)c1cc2nc(Nc3cccc(C(=O)NO)c3)[nH]c2cc1C(F)(F)F` [Example 7-1, N-hydroxy-3-(6-(methylsulfonyl)-5-(trifluoromethyl)-1H-benzo[d]imidazol-2-ylamino)benzamide] was tested. Which IC50 did it give?
Answer: Its IC50 is < 500 nM.

Question: With `O=C(NO)c1cccc(Nc2nc3cc(C(F)(F)F)c(-c4ccc5c(c4)OCCO5)cc3[nH]2)c1` [Example 36-9, 3-((6-(2,3-dihydrobenzo[b][1,4]dioxin-6-yl)-5-(trifluoromethyl)-1H-benzo[d]imidazol-2-yl)amino)-N-hydroxybenzamide] as the molecule, how does the IC50 read?
Answer: The IC50 was < 500 nM.

Question: Which IC50 does the source give for `O=C(NO)c1ccc(F)c(Nc2nc3cc(Cl)c(Cl)cc3o2)c1` [Example 4-3, 3-((5,6-dichlorobenzo[d]oxazol-2-yl)amino)-4-fluoro-N-hydroxybenzamide] here?
Answer: Its IC50 is < 500 nM.

Question: How did the IC50 turn out when `O=C(NO)c1cccc(Nc2nc3cc(Cl)ccc3[nH]2)c1` [Example 33-20, 3-((5-chloro-1H-benzo[d]imidazol-2-yl)amino)-N-hydroxybenzamide] was run?
Answer: The IC50 was > 1000 nM.

Question: Which IC50 does the source give for `O=C(NO)c1cccc(Nc2nc3cc(Cl)c(Cl)cc3[nH]2)c1` [Example 33-14, 3-((5,6-dichloro-1H-benzo[d]imidazol-2-yl)amino)-N-hydroxybenzamide] here?
Answer: Its IC50 is < 500 nM.

Question: For `O=C(NO)c1cccc(Nc2nc3cc(C(F)(F)F)c(-c4ccccc4)cc3o2)c1` [Example 3-1, N-hydroxy-3-(6-phenyl-5-(trifluoromethyl)benzo[d]oxazol-2-ylamino)benzamide], which IC50 is on record?
Answer: Its IC50 is < 500 nM.

Question: How did the IC50 turn out when `Cc1cc2[nH]c(Nc3cccc(C(=O)NO)c3)nc2cc1Br` [Example 33-12, 3-((5-bromo-6-methyl-1H-benzo[d]imidazol-2-yl)amino)-N-hydroxybenzamide] was run?
Answer: Its IC50 is < 500 nM.

Question: Which IC50 does the source give for `COc1cc2nc(Nc3cccc(C(=O)NO)c3)[nH]c2cc1OC` [Example 33-13, 3-((5,6-dimethoxy-1H-benzo[d]imidazol-2-yl)amino)-N-hydroxybenzamide] here?
Answer: Its IC50 is > 1000 nM.

Question: `O=C(NO)c1cccc(Nc2nc3cc([N+](=O)[O-])ccc3[nH]2)c1` [Example 33-21, N-hydroxy-3-((5-nitro-1H-benzo[d]imidazol-2-yl)amino)benzamide] was tested. Which IC50 did it give?
Answer: The IC50 was 500 to 1000 nM.

Question: For `O=C(NO)c1cccc(Nc2nc3cc(Cl)c(Cl)cc3o2)n1` [Example 31-1, 6-((5,6-dichlorobenzo[d]oxazol-2-yl)amino)-N-hydroxypicolinamide], which IC50 is on record?
Answer: The IC50 was < 500 nM.

Question: Which IC50 does the source give for `O=C(NO)c1cccc(Nc2cc3cc(Cl)c(Cl)cc3[nH]2)c1` [Example 28-1, 3-((5,6-dichloro-1H-indol-2-yl)amino)-N-hydroxybenzamide] here?
Answer: Its IC50 is < 500 nM.

Question: Which IC50 does the source give for `O=C(NO)c1cccc(Nc2nc3cc(C(F)(F)F)c(-c4cccc(C(=O)N5CCOCC5)c4)cc3[nH]2)c1` [Example 36-14, N-hydroxy-3-((6-(3-(morpholine-4-carbonyl)phenyl)-5-(trifluoromethyl)-1H-benzo[d]imidazol-2-yl)amino)benzamide] here?
Answer: Its IC50 is < 500 nM.

Question: For `Cn1c(Nc2cccc(C(=O)NO)c2)nc2cc(F)c(C#N)cc21` [Example 12-1, 3-(6-cyano-5-fluoro-1-methyl-1H-benzo[d]imidazol-2-ylamino)-N-hydroxybenzamide], which IC50 is on record?
Answer: The IC50 was < 500 nM.
